Experimental data taken from patent publication US20260274892A1, “MACROCYCLIC BROAD SPECTRUM ANTIBIOTICS” (RQx Pharmaceuticals, Inc., priority 2017, published 2026).

The molecules below were run on Escherichia coli ATCC 25922 (assay: Minimum inhibitory concentration (MIC), CLSI broth micro-dilution, E. coli). Conditions: Escherichia coli, ATCC25922, 22 h, Table 7, cation adjusted Mueller Hinton Broth + 0.002% Tween-80, 35° C.
Format: cell-based
Summary of the method: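 Antibacterial potency is measured as MIC by the CLSI broth dilution method. Bacteria at OD600 0.0005 in Tween-80-supplemented cation-adjusted Mueller Hinton broth face ten twofold compound dilutions for 22 h at 35° C.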
`Cc1nc(-c2ccc(C(C)(C)C)cc2)nc(C)c1C(=O)N[C@@H](CCN)C(=O)N(C)[C@@H]1C(=O)N[C@@H](C)C(=O)N[C@H](C(=O)NCC#N)Cc2ccc(OC[C@H](O)CN)c(c2)-c2cc1cc(OCCN)c2O` (racemic) [Compound 587, rac-(8S,11S,14S)-17-(2-aminoethoxy)-N-(cyanomethyl)-18-hydroxy-11-methyl-14-[methyl-[rac-(2S)-4-amino-2-[[2-(4-tert-butylphenyl)-4,6-dimethyl-pyrimidine-5-carbonyl]amino]butanoyl]amino]-10,13-dioxo-3-[rac-(2R)-3-amino-2-hydroxy-propoxy]-9,12-diazatricyclo[13.3.1.12,6]icosa-1(18),2(20),3,5,15(19),16-hexaene-8-carboxamide] gave an MIC of 0.094 µM. Work on `Cc1nc(-c2ccc(C(C)(C)C)cc2)nc(C)c1C(=O)N[C@@H](CCN)C(=O)N(C)[C@@H]1C(=O)N[C@@H](C)C(=O)N[C@H](C(=O)NCC#N)Cc2ccc(OCCN)c(c2)-c2cc1cc(OC[C@H](O)CN)c2O` (racemic) [Compound 588, rac-(8S,11S,14S)-3-(2-aminoethoxy)-N-(cyanomethyl)-18-hydroxy-11-methyl-14-[methyl-[rac-(2S)-4-amino-2-[[2-(4-tert-butylphenyl)-4,6-dimethyl-pyrimidine-5-carbonyl]amino]butanoyl]amino]-10,13-dioxo-17-[rac-(2R)-3-amino-2-hydroxy-propoxy]-9,12-diazatricyclo[13.3.1.12,6]icosa-1(18),2(20),3,5,15(19),16-hexaene-8-carboxamide] yielded an MIC of 0.094 µM. Work on `Cc1nc(-c2ccc(C(C)(C)C)cc2)nc(C)c1C(=O)N[C@@H](CCN)C(=O)N(C)[C@@H]1C(=O)N[C@@H](C)C(=O)N[C@H](C(=O)NCC#N)Cc2ccc(OCCN)c(c2)-c2cc1cc(NCCN)c2O` (racemic) [Compound 589, rac-(8S,11S,14S)-3-(2-aminoethoxy)-17-(2-aminoethylamino)-N-(cyanomethyl)-18-hydroxy-11-methyl-14-[methyl-[rac-(2S)-4-amino-2-[[2-(4-tert-butylphenyl)-4,6-dimethyl-pyrimidine-5-carbonyl]amino]butanoyl]amino]-10,13-dioxo-9,12-diazatricyclo[13.3.1.12,6]icosa-1(18),2(20),3,5,15(19),16-hexaene-8-carboxamide] yielded an MIC of 1 µM. Work on `COc1c(OC[C@H](O)CN)cc2cc1-c1cc(cc(OC[C@H](O)CN)c1OC)[C@H](N(C)C(=O)[C@H](CCN)NC(=O)c1c(C)nc(-c3ccc(C(C)(C)C)cc3)nc1C)C(=O)N[C@@H](C)C(=O)N[C@H](C(=O)NCC#N)C2` (racemic) [Compound 591, rac-(8S,11S,14S)-N-(cyanomethyl)-3,18-dimethoxy-11-methyl-14-[methyl-[rac-(2S)-4-amino-2-[[2-(4-tert-butylphenyl)-4,6-dimethyl-pyrimidine-5-carbonyl]amino]butanoyl]amino]-10,13-dioxo-4,17-bis[rac-(2R)-3-amino-2-hydroxy-propoxy]-9,12-diazatricyclo[13.3.1.12,6]icosa-1(18),2(20),3,5,15(19),16-hexaene-8-carboxamide] yielded an MIC of 0.25 µM. With `COc1c(OCCN)cc2cc1-c1cc(cc(OCCN)c1OC)[C@H](N(C)C(=O)[C@H](CCN)NC(=O)c1c(C)nc(-c3ccc(C(C)(C)C)cc3)nc1C)C(=O)N[C@@H](C)C(=O)N[C@H](C(=O)NCC#N)C2` (racemic) [Compound 592, rac-(8S,11S,14S)-4,17-bis(2-aminoethoxy)-N-(cyanomethyl)-3,18-dimethoxy-11-methyl-14-[methyl-[rac-(2S)-4-amino-2-[[2-(4-tert-butylphenyl)-4,6-dimethyl-pyrimidine-5-carbonyl]amino]butanoyl]amino]-10,13-dioxo-9,12-diazatricyclo[13.3.1.12,6]icosa-1(18),2(20),3,5,15(19),16-hexaene-8-carboxamide] the MIC was 0.19 µM. In the case of `COc1c(OC[C@H](O)CN)cc2cc1-c1cc(cc(OC[C@H](O)CN)c1OC)[C@H](N(C)C(=O)[C@H](CNS(N)(=O)=O)NC(=O)c1c(C)nc(-c3ccc(C(C)(C)C)cc3)nc1C)C(=O)N[C@@H](C)C(=O)N[C@H](C(=O)NCC#N)C2` (racemic) [Compound 593, rac-(8S,11S,14S)-N-(cyanomethyl)-3,18-dimethoxy-11-methyl-14-[methyl-[rac-(2S)-2-[[2-(4-tert-butylphenyl)-4,6-dimethyl-pyrimidine-5-carbonyl]amino]-3-(sulfamoylamino)propanoyl]amino]-10,13-dioxo-4,17-bis[rac-(2R)-3-amino-2-hydroxy-propoxy]-9,12-diazatricyclo[13.3.1.12,6]icosa-1(18),2(20),3,5,15(19),16-hexaene-8-carboxamide], the MIC is reported as 1.5 µM. `Cc1nc(-c2ccc(C(C)(C)C)cc2)nc(C)c1C(=O)N[C@@H](CCN)C(=O)N(C)[C@@H]1C(=O)N[C@@H](C)C(=O)N[C@H](C(=O)NCC#N)Cc2ccc(O)c(c2)-c2cc1ccc2OCCNC(=N)N` (racemic) [Compound 595, rac-(8S,11S,14S)-N-(cyanomethyl)-18-(2-guanidinoethoxy)-3-hydroxy-11-methyl-14-[methyl-[rac-(2S)-4-amino-2-[[2-(4-tert-butylphenyl)-4,6-dimethyl-pyrimidine-5-carbonyl]amino]butanoyl]amino]-10,13-dioxo-9,12-diazatricyclo[13.3.1.12,6]icosa-1(18),2(20),3,5,15(19),16-hexaene-8-carboxamide] showed an MIC of 0.33 µM.

Same assay, conditions: Escherichia coli, ATCC25922, Table 7, cation adjusted Mueller Hinton Broth + 0.002% Tween-80, 35° C., 22 hours
Work on `Cc1nc(-c2ccc(C(C)(C)C)cc2)nc(C)c1C(=O)N[C@@H](CNS(N)(=O)=O)C(=O)N(C)[C@@H]1C(=O)N[C@@H](C)C(=O)N[C@H](C(=O)NCC#N)Cc2ccc(OCCN)c(c2)-c2cc1cc(OCCNC(=N)N)c2O` (racemic) [Compound 590, rac-(8S,11S,14S)-3-(2-aminoethoxy)-N-(cyanomethyl)-17-(2-guanidinoethoxy)-18-hydroxy-11-methyl-14-[methyl-[rac-(2S)-2-[[2-(4-tert-butylphenyl)-4,6-dimethyl-pyrimidine-5-carbonyl]amino]-3-(sulfamoylamino)propanoyl]amino]-10,13-dioxo-9,12-diazatricyclo[13.3.1.12,6]icosa-1(18),2(20),3,5,15(19),16-hexaene-8-carboxamide] yielded an MIC of 0.38 µM. `Cc1nc(-c2ccc(C(C)(C)C)cc2)nc(C)c1C(=O)N[C@@H](CCN)C(=O)N(C)[C@@H]1C(=O)N[C@@H](C)C(=O)N[C@H](C(=O)NCC#N)Cc2cc(OCCN)c(O)c(c2)-c2cc1ccc2OC[C@H](O)CN` (racemic) [Compound 594, rac-(8S,11S,14S)-4-(2-aminoethoxy)-N-(cyanomethyl)-3-hydroxy-11-methyl-14-[methyl-[rac-(2S)-4-amino-2-[[2-(4-tert-butylphenyl)-4,6-dimethyl-pyrimidine-5-carbonyl]amino]butanoyl]amino]-10,13-dioxo-18-[rac-(2R)-3-amino-2-hydroxy-propoxy]-9,12-diazatricyclo[13.3.1.12,6]icosa-1(18),2(20),3,5,15(19),16-hexaene-8-carboxamide] was tested, and the MIC was 0.13 µM.
